Values of other authors, collected in patent US6959708B1, “Method for co-application of gases and drugs to potentiate their action in relieving headaches, angina and other ailments” (Capnia, Incorporated, priority 1999, dated 2005).
Read-outs that look alike come from different tables or passages of the source.

Columns and labels:
[1] = system: serotonin-induced bronchial smooth muscle contraction
[2] = system: central and peripheral airways; conditions: asthmatic adults
pulmonary hypertension = conditions: in vivo
[3] = system: transpulmonary gradient and pulmonary vascular resistance; conditions: inhaled low dose
[4] = co-application of a 10% CO2 concentration
[5] = drug alone, without CO2 co-application

| Compound | inhibition of serotonin-induced bronchial smooth muscle contraction [1, 4] [%] | inhibition of serotonin-induced bronchial smooth muscle contraction [1, 5] [%] | other results |
| --- | --- | --- | --- |
| CN1[C@@H]2CC[C@H]1C[C@@H](OC(=O)C(CO)c1ccccc1)C2 (some centres unmarked) [atropine] | 62 | 46 | – |
| O=C=O [CO2, carbon dioxide] | – | – | effect on airways [2]: relax both central and peripheral airways |
| C[N+](C)(C)CCCCCC[N+](C)(C)C [hexamethonium] | 67 | 37 | – |
| nitric oxide [NO] | – | – | effect on pulmonary hypertension (pulmonary hypertension): reverse pulmonary hypertension; pulmonary vasoselectivity [3]: highly pulmonary vasoselective; reduction of transpulmonary gradient and pulmonary vascular resistance compared with sodium nitroprusside and prostacyclin ([3]; in vivo and clinical tests): as effective as sodium nitroprusside and prostacyclin |
